For assay [1], the system named is EC9706 cells. Briefly: MTT cell viability, EC9706. It is filed as cell-based. The settings on record: Homo sapiens, esophageal cancer cell line, 72 h. Here is the method:
(§1) The cell viability was determined by 3-(4,5-dimethylthiazol-2-yl)-2,5-diphenyltetrazolium bromide (MTT) assay, according to the manufacturer’s instructions. 1 day before treatment, cells were seeded into 96-well plates at a concentration of 2–5 × 10^3 cells per well, followed by treatment with fresh medium containing serial dilutions of candidate compounds for 48 or 72 h, 20 μL of MTT solution (5 mg/mL in PBS) was then added to each well. After treatment, the plates were incubated at 37 °C for another 4 h. Subsequently, the MTT solution was removed and 150 μL of DMSO was added to each well for 10 min, and then the plates were shaken to dissolve the dark blue crystal (formazan), the absorbance was detected at 570 nm using a BioTek microplate reader. The data were analyzed using SPSS 20 software.

The subject of assay [2] is HL-7702 cells. Nature of the assay: MTT cell viability, HL-7702. It is filed as cell-based. Particulars: Homo sapiens, L02, normal liver cell line, 72 h. Here is the method: as §1
For assay [3], the target named is MTH1 (Homo sapiens, UniProt P36639). Briefly: MTH1 recombinant protein activity / inhibitor screening (malachite green). It is filed as biochemical. Also noted: His-tag; made in house; host or cells: E. coli BL21(DE3). Particulars: 5 nM recombinant MTH1, dGTP substrate, absorbance 630 nm; read-out: IC50 (MTH1 inhibition). Here is the method: On the basis of the ability of MTH1 in converting dGTP to dGMP and pyrophosphate, and the latter can then be hydrolyzed to […] by inorganic pyrophosphatase, the MTH1 activity was designed to measure the product of […], after its reaction with malachite green and ammonium molybdate(Fig. 2l), the green associated complex was measured at 630 nm by PerkinElmer Envision microplate reader.
Firstly, the assay buffer (100 mM Tris-acetate at pH 8.0, 40 mM NaCl, 10 mM Mg-acetate, 0.005% Tween 20 and 1 mM DTT) was added into a 96-well plate. Then, 5 nM recombinant human MTH1, […] dGTP and 0.2U/ml […] were added in sequence. After 60 min reaction, the mixture of 0.45 mg/mL malachite green and 4.2% ammonium molybdate in proportion of 3:1 were added. Then, the plates were incubated and shaken at room temperature for another 60 min. The absorbance was measured at 630 nm using the PerkinElmer Envision micro plate reader.

The subject of assay [4] is L02 cells. Briefly: MTT cell viability, L02. It is filed as cell-based. Particulars: Homo sapiens, normal liver cell line, 72 h. On the procedure: as §1
Assay [5] concerns HGC-27 cells. Nature of the assay: 8-oxo-dG assay (Cy3-conjugated avidin), HGC-27. It is filed as cell-based, human. Particulars: HGC-27, 5 µM, 48 h, compared with DMSO. On the procedure: (§2) Intracellular 8-oxo-dG levels were measured by staining with Cy3-conjugated avidin[65]. Cells were seeded on coverslips in 24-well plates (1–1.5 × 10^4 cells/well) overnight, and then transfected with candidate compounds. After 48 h, the cells were fixed with ice-cold methanol in Tris-buffered saline (TBS) for 15 min and blocked, using TBS with 0.1% Triton X-100 and 15% fetal bovine serum for 1 h. Then, the cells were stained with Cy3-conjugated avidin (0.5 µg/mL) for 1 h at room temperature. DNA was counterstained with 4,6-diamidino-2-phenylindole(DAPI). Images were acquired in a Nikon Eclipse TE 2000-S fluorescence microscope.

The test system of assay [6] is GES-1 cells. Nature of the assay: Colony formation assay, GES-1. In kind it is cell-based, human. Particulars: GES-1 gastric normal cells, 7 days treatment. Here is the method:
The day before treatment, cells were seeded into six-well plates at a concentration of 1 × 10^3 cells per well, and then the media were replaced with fresh media containing serial concentrations of candidate compounds. After 7 days of treatment, the cells were fixed with 75% ethanol, stained with 0.1% crystal violet solution and captured by the microscopy (Leica). After that, the crystal violet crystals were dissolved by adding methanol. The absorbance at 595 nm was measured by a BioTek micro plate reader. In the end, the data were analyzed using the GraphPad Prism 5 software.

Assay [7] concerns the target T1, MUTYH (Homo sapiens, UniProt Q9UIF7).
T1 construct: endogenous in cells; host or cells: MGC-803 (human gastric cancer cell line)
Nature of the assay: Cellular thermal shift assay (CETSA), MUTYH. In kind it is binding. Particulars: MGC-803 cells, 50 µM compound, heated 10 min from 43 to 61 °C. Here is the method:
(§3) Cellular thermal shift assay (CETSA), also known as the target engagement assay was one-way to detect the intracellular interaction ability of compounds with its specific target. Firstly, cells were seeded into T75 culture flasks and cultured overnight. Then, the cells were treated with cell media containing 1‰ DMSO as blank control and candidate compounds for 3–5 h. Next, the cells were collected by centrifugation and resuspended by PBS, then the cells were aliquoted into 7 PCR tubes and heated using PCR instrument for 10 min from 43 to 61 °C. After that, cells were lysed using liquid nitrogen and three repeated cycles of freeze-thawing. Then, samples were centrifuged at 12,000 × g for 20 min at 4 °C. Supernatants were denatured at 100 °C for 10 min and kept at −20 °C until Western Blot analysis.

Assay [8] relates to HGC-27 cells. Nature of the assay: Western blot of DNA damage response markers, HGC-27. In kind it is cell-based, human. The settings on record: HGC-27, 1-12 µM 48 h or 12 µM 12-48 h, dose and time-dependently, vs DMSO. Here is the method: MGC-803, HGC-27 and GES-1 cells were seeded into 100mm^2 plastic dishes(1 × 10^5 cells/well) and incubated overnight prior to the addition of compound MI-743 at 1, 2, 4, 8 and 12 µM for 48 h or compound MI-743 at 12 µM for 12, 24, 36 and 48 h, respectively. After treatment, the cells were harvested and lysed with RIPA cell lysis buffer, containing protease inhibitor cocktail. Then, the cells were centrifuged at 12,000 × g for 20 min at 4 °C. The supernatant were collected and the concentration was determined by a Bicinchoninic Acid (BCA) Protein Assay kit, denatured at 100 °C for 10 min, separated by SDS−PAGE and transferred to 0.22 μm nitrocellulose membranes. After blocking by PBS containing 5% skim milk for 2 h at room temperature, the membranes were probed with the appropriate primary antibodies (1:500~1:1000) at 4 °C overnight, followed by the treatment of horseradish-peroxidase-conjugated secondary antibody (1:10000) at room temperature for 2 h. Subsequently, the membranes were washed with PBST, examined by enhanced chemiluminescence and the data was determined using Image J software.
In general terms: A western blot detects proteins with antibodies after separation by electrophoresis.

Assay [9] deals with MGC-803 cells. Nature of the assay: 8-oxo-dG assay (Cy3-conjugated avidin), MGC-803. Particulars: MGC-803, 5 µM, 48 h, compared with DMSO. It is filed as cell-based, human. On the procedure: as §2
The subject of assay [10] is SMMC-7721 cells. Briefly: MTT cell viability, SMMC-7721. It is filed as cell-based. The settings on record: Homo sapiens, liver cancer cell line, 72 h. On the procedure: as §1
Assay [11] concerns MCF-7 cells. Briefly: MTT cell viability, MCF-7. It is filed as cell-based. The settings on record: Homo sapiens, MCF7, breast cancer cell line, 72 h. Here is the method:
as §1

The target in assay [12] is T2, MTH2 (Homo sapiens, UniProt Q9NV35).
T2 construct: endogenous in cells; host or cells: MGC-803 (human gastric cancer cell line)
T2 sequence (Q9NV35 whole entry): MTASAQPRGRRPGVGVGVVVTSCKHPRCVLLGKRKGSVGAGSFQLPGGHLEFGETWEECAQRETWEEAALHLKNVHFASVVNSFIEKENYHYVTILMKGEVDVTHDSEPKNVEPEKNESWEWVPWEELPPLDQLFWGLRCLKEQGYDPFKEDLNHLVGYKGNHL
Briefly: Cellular thermal shift assay (CETSA), MTH2. It is filed as binding. The settings on record: MGC-803 cells, 50 µM compound, heated 10 min from 43 to 61 °C. Here is the method:
as §3

The test system of assay [13] is H1975 cells. Nature of the assay: MTT cell viability, H1975. It is filed as cell-based. Particulars: Homo sapiens, NCI-H1975, 72 h. Here is the method: as §1

As a reminder, the IC50 is the midpoint of a concentration-inhibition curve.

Each structure is given as a SMILES string.

T1 sequence (Q9UIF7 whole entry): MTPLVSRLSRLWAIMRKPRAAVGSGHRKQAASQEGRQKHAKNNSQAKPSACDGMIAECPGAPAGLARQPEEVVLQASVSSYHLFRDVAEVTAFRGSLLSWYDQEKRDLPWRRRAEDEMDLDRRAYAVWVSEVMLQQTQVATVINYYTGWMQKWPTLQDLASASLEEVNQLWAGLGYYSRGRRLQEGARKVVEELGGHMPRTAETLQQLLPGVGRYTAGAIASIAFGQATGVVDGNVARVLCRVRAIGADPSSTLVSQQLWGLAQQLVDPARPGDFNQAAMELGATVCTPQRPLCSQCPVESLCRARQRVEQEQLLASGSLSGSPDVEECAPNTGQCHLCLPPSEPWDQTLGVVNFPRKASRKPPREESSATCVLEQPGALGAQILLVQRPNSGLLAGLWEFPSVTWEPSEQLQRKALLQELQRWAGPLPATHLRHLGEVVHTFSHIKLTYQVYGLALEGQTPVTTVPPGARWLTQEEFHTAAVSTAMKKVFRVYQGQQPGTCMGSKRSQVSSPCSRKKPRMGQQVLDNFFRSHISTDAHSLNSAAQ

Take `C#CCSc1nc(NNC(N)=S)c(C#N)c(-c2ccc3oc(=O)ccc3c2)n1` [MI-743, 2-(5-cyano-6-(2-oxo-2H-chromen-6-yl)-2-(prop-2-yn-1-ylthio)pyrimidin-4-yl)hydrazine-1-carbothioamide]: the IC50 came to 8.35 ± 0.92 µM in assay [1]; 20.1 ± 1.76 µM in [2]; 0.0914 ± 0.00145 µM in assay [3]; 17.3 ± 1.23 µM in [4]; 5.39 ± 0.73 µM in [10]; 9.67 ± 1.01 µM in assay [11]. In assay [13], inhibition was half-maximal at 15.1 ± 1.18 µM (IC50). Also, the “levels of 8-oxo-dG” value in assay [5] and in assay [9] was “sharply increased” throughout. In [6], the colony formation entry is given as “no obviously inhibitory effect”. Besides, the “temperature at which MUTYH became unstable” value in assay [7] worked out at 49 °C. The “expression levels of p53pS15, ATMpS1981 and p21” value in assay [8] was “significantly increased”. Besides, the “temperature at which MTH2 became unstable” value in [12] was 49 °C.
